pIC50: −log10 of the molar value.
Experiments:
[1] = tested on: MRC-5; test: MTT cytotoxicity assay; settings: Homo sapiens, MRC5, 72 h
[2] = tested on: melanoma cells; test: MTT cytotoxicity assay, melanoma panel; type: cell-based, Human; settings: SK-Mel cells versus non-tumor cell lines
From the text: (§1) Human cell lines were used throughout this program. SK-MEL-19 (melanoma BRAF^V600E, NRAS^WT), SK-MEL-28 (melanoma BRAF^V600E, NRAS^WT), SK-MEL-147 (melanoma BRAF^WT, NRAS^Q61R), MRC-5 (fibroblasts), and primary fibroblast (FDH) were kindly provided by Professor Glaucia Santelli (University of São Paulo, Brazil). MCF7 (breast adenocarcinoma, ATCC HTB-22), and HCT-116 (colorectal carcinoma, ATCC 247) cells were obtained from American Type Culture Collection (ATCC) and deposited in the Cell Bank of Rio de Janeiro, Brazil. WM293A (metastatic melanoma BRAF^V600D, NRAS^WT), 501mel (metastatic melanoma BRAF^V600E; NRAS^G12D), and MM200 (melanoma BRAF^V600E, NRAS^WT) were kindly provided by Professor Sharon Prince, University of Cape Town, South Africa. All human melanoma and breast cell lines were cultivated with Dulbecco’s Modified Eagle Medium: Nutrient Mixture F-12 (Thermo Fisher Scientific, San Jose, CA, USA). MM200 and HCT-116 were maintained with Roswell Park Memorial Institute (RPMI) medium (Thermo Fisher Scientific, San Jose, CA, USA). Unless stated otherwise, media was supplemented with 10% fetal bovine serum (FBS) and 1% penicillin-streptomycin (Thermo Fisher Scientific, San Jose, CA, USA). Cells were incubated with 5% CO2 at 37 °C. When required, cells were detached from flask using trypsin-EDTA 0.05% (Thermo Fisher Scientific, San Jose, CA, USA).
(§2) Cytotoxic activity was evaluated by the transformation of 3-(4,5-dimethylthiazol-2-yl)-2,5-diphenyltetrazolium bromide (MTT; Thermo Fisher Scientific, San Jose, CA, USA) into formazan by viable cells. Cells were plated in a 96-well plate (1 × 10^4 cells/well) and, 24 h later, exposed to serial dilutions of the test compounds (from 0.00032 to 5.0 µM) for 24, 48, and 72 h. For each analysis, negative controls received 0.5% DMSO and positive control was delivered by doxorubicin (DOX; 0.05 to 10.0 µM). At the end of the incubation periods, the medium was replaced with fresh medium containing 0.5 mg/mL of MTT and supernatant was removed 3 h later. The plates were dried at 50 °C for 30 min and formazan was solubilized in DMSO (150 µL/well) for the absorbance measure at 570 nm on a plate reader (Thermo Fisher Scientific, San Jose, CA, USA). IC50 values (half-maximal inhibitory concentration) along with 95% CI (confidence intervals) were calculated by non-linear regression using GraphPad Prism 8.0 software (GraphPad Software, Inc., San Diego, CA, USA).

[3] = tested on: FDH; test: MTT cytotoxicity assay; type: cell-based, Human; settings: Homo sapiens, Fibroblast, 72 h, FDH primary fibroblasts, 72 h treatment
From the text: as §1, §2

[4] = tested on: SK-MEL-19; test: MTT cytotoxicity assay; type: cell-based, Human; settings: for pIC50: Homo sapiens, SK-MEL19, SK-MEL-19, 72 h treatment, MTT
From the text: as §1, §2

[5] = tested on: SK-MEL-28; test: MTT cytotoxicity assay; type: cell-based, Human; settings: for pIC50: Homo sapiens
From the text: as §1, §2

[6] = tested on: HCT-116; test: MTT cytotoxicity assay; type: cell-based, Human; settings: for pIC50: Homo sapiens, HCT-116, 72 h treatment, MTT
From the text: as §1, §2

[7] = tested on: SK-MEL-147; test: MTT cytotoxicity assay; type: cell-based, Human; settings: for pIC50: Homo sapiens
From the text: as §1, §2

[8] = tested on: WM293A; test: MTT cytotoxicity assay; type: cell-based, Human; settings: for pIC50: Homo sapiens, WM293A, 72 h treatment, MTT
From the text: as §1, §2

[9] = tested on: 501mel; test: MTT cytotoxicity assay; type: cell-based, Human; settings: for pIC50: Homo sapiens, 501mel, 72 h treatment, MTT
From the text: as §1, §2

[10] = tested on: MM200; test: MTT cytotoxicity assay; type: cell-based, Human; settings: for pIC50: Homo sapiens, MM200, 72 h treatment, MTT
From the text: as §1, §2

[11] = tested on: MCF7; test: MTT cytotoxicity assay; type: cell-based, Human; settings: for pIC50: Homo sapiens, MCF7, 72 h treatment, MTT
From the text: as §1, §2

[12] = MRC-5 non-tumor fibroblasts, 72 h treatment, MTT
[13] = SK-MEL-19 versus FDH, 72-h IC50 ratio
[14] = SK-MEL-19 versus MRC-5, 72-h IC50 ratio
[15] = SK-MEL-28, 72 h, SK-MEL-28, 72 h treatment, MTT
[16] = SK-MEL-28 versus FDH, 72-h IC50 ratio
[17] = SK-MEL-28 versus MRC-5, 72-h IC50 ratio
[18] = HCT-116 versus FDH, 72-h IC50 ratio
[19] = HCT-116 versus MRC-5, 72-h IC50 ratio
[20] = SK-MEL-147, 72 h, SK-MEL-147, 72 h treatment, MTT
[21] = SK-MEL-147 versus FDH, 72-h IC50 ratio
[22] = SK-MEL-147 versus MRC-5, 72-h IC50 ratio
[23] = WM293A versus FDH, 72-h IC50 ratio
[24] = WM293A versus MRC-5, 72-h IC50 ratio
[25] = 501mel versus FDH, 72-h IC50 ratio
[26] = 501mel versus MRC-5, 72-h IC50 ratio
[27] = MM200 versus FDH, 72-h IC50 ratio
[28] = MM200 versus MRC-5, 72-h IC50 ratio
[29] = MCF7 versus FDH, 72-h IC50 ratio
[30] = MCF7 versus MRC-5, 72-h IC50 ratio
[31] = SK-MEL-28, SK-MEL-28, 24h treatment, 1h pre-treated with 30 nM bafilomycin A1
[32] = SK-MEL-28, SK-MEL-28, 24h treatment, 1h pre-treated with 20 µM Z-VAD-FMK
[33] = SK-MEL-28, SK-MEL-28, 24h treatment, no pre-treatment (Table S4)
[34] = SK-MEL-147, SK-MEL-147, 24h treatment, 1h pre-treated with 30 nM bafilomycin A1
[35] = SK-MEL-147, SK-MEL-147, 24h treatment, 1h pre-treated with 20 µM Z-VAD-FMK
[36] = SK-MEL-147, SK-MEL-147, 24h treatment, no pre-treatment (Table S4)

O=C(O)CCc1ccc2c(=O)c3sc4c(=O)c5ccccc5c(=O)c4c3c(=O)c2c1 [SQ3]
pIC50 [1, 12]: 5.84
selectivity indices to SK-Mel cells in relation to non-tumor cell lines [2]: ≥ twofold
pIC50 [3]: 5.46
pIC50 [4]: 6.96
Selectivity Index (SI) [4, 13]: 31.8
Selectivity Index (SI) [4, 14]: 13.0
pIC50 [5, 15]: 6.62
Selectivity Index (SI) [5, 16]: 14.6
Selectivity Index (SI) [5, 17]: 6.0
Selectivity Index (SI) [6, 18]: 3.4
Selectivity Index (SI) [6, 19]: 1.4
pIC50 [6]: 5.99
pIC50 [7, 20]: 6.59
Selectivity Index (SI) [7, 21]: 13.5
Selectivity Index (SI) [7, 22]: 5.5
pIC50 [8]: 5.82
Selectivity Index (SI) [8, 23]: 2.3
Selectivity Index (SI) [8, 24]: 1.0
Selectivity Index (SI) [9, 25]: 17.5
Selectivity Index (SI) [9, 26]: 7.2
pIC50 [9]: 6.70
pIC50 ([10]; 72 h): 5.84
Selectivity Index (SI) [10, 27]: 2.4
Selectivity Index (SI) [10, 28]: 1.0
pIC50 [11]: 5.72
Selectivity Index (SI) [11, 29]: 1.8
Selectivity Index (SI) [11, 30]: 0.8

CO[C@H]1C[C@@H]2CC[C@@H](C)[C@@](O)(O2)C(=O)C(=O)N2CCCC[C@H]2C(=O)O[C@H]([C@H](C)C[C@@H]2CC[C@@H](O)[C@H](OC)C2)CC(=O)[C@H](C)/C=C(\C)[C@@H](O)[C@@H](OC)C(=O)[C@H](C)C[C@H](C)/C=C/C=C/C=C/1C [RAPAMYCIN, rapamycin, reference compound]
pIC50 [5, 31]: 4.81
pIC50 [5, 32]: 4.50
pIC50 [5, 33]: 4.75
pIC50 [7, 34]: 4.41
pIC50 [7, 35]: 4.64
pIC50 [7, 36]: 4.76

COc1cccc2c1C(=O)c1c(O)c3c(c(O)c1C2=O)C[C@@](O)(C(=O)CO)C[C@@H]3O[C@H]1C[C@H](N)[C@H](O)[C@H](C)O1 [DOX, doxorubicin, reference compound]
pIC50 [1]: 7.30
pIC50 [3]: 6.11
pIC50 [4]: 6.41
Selectivity Index (SI) [4, 13]: 2.0
Selectivity Index (SI) [4, 14]: 0.1
pIC50 ([5]; SK-MEL-28, 24 h, SK-MEL-28, 24h treatment, MTT): 5.86
pIC50 ([5]; SK-MEL-28, 48 h, SK-MEL-28, 48h treatment, MTT): 5.68
pIC50 [5, 15]: 5.91
pIC50 [5, 31]: 6.48
pIC50 [5, 32]: 5.94
pIC50 [5, 33]: 6.23
Selectivity Index (SI) [5, 16]: 0.6
Selectivity Index (SI) [5, 17]: 0.04
Selectivity Index (SI) [6, 18]: 5.2
Selectivity Index (SI) [6, 19]: 0.3
pIC50 [6]: 6.82
pIC50 ([7]; SK-MEL-147, 24 h, SK-MEL-147, 24h treatment, MTT): 6.10
pIC50 ([7]; SK-MEL-147, 48 h, SK-MEL-147, 48h treatment, MTT): 6.32
pIC50 [7, 20]: 6.74
pIC50 [7, 34]: 5.61
pIC50 [7, 35]: 5.73
pIC50 [7, 36]: 6.10
Selectivity Index (SI) [7, 21]: 4.3
Selectivity Index (SI) [7, 22]: 0.3
pIC50 [8]: 7.22
Selectivity Index (SI) [8, 23]: 13.0
Selectivity Index (SI) [8, 24]: 0.9
Selectivity Index (SI) [9, 25]: 3.0
Selectivity Index (SI) [9, 26]: 0.2
pIC50 [9]: 6.59
pIC50 [10]: 7.00
Selectivity Index (SI) [10, 27]: 7.8
Selectivity Index (SI) [10, 28]: 0.5
pIC50 [11]: 6.25
Selectivity Index (SI) [11, 29]: 1.4
Selectivity Index (SI) [11, 30]: 0.1

NCCCCCCNC(=O)CCc1ccc2c(=O)c3sc4c(=O)c5ccccc5c(=O)c4c3c(=O)c2c1 [SQ4]
pIC50 [1, 12]: 5.61
selectivity indices to SK-Mel cells in relation to non-tumor cell lines [2]: ≥ twofold
pIC50 [3]: 6.00
pIC50 [4]: 6.49
Selectivity Index (SI) [4, 13]: 3.2
Selectivity Index (SI) [4, 14]: 7.7
pIC50 [5, 15]: 6.72
Selectivity Index (SI) [5, 16]: 5.3
Selectivity Index (SI) [5, 17]: 12.9
Selectivity Index (SI) [6, 18]: 1.0
Selectivity Index (SI) [6, 19]: 2.4
pIC50 [6]: 5.99
pIC50 [7, 20]: 6.40
Selectivity Index (SI) [7, 21]: 2.5
Selectivity Index (SI) [7, 22]: 6.1
pIC50 [8]: 5.76
Selectivity Index (SI) [8, 23]: 0.6
Selectivity Index (SI) [8, 24]: 1.4
pIC50 [9]: < 5.30
pIC50 ([10]; 72 h): 5.94
Selectivity Index (SI) [10, 27]: 0.9
Selectivity Index (SI) [10, 28]: 2.1
pIC50 [11]: 6.00
Selectivity Index (SI) [11, 29]: 1.0
Selectivity Index (SI) [11, 30]: 2.5
